Target: P. falciparum apicoplast DNA polymerase (Pf-apPOL) (Plasmodium falciparum, UniProt Q8ILY1)
Assay: Fluorescence-based high-throughput DNA polymerase assay (molecular beacon), primary screen and dose-response
Assay type: biochemical
Method: The HT assay employs a molecular beacon, a stem-loop DNA template with a Cy3 dye and the Black Hole Quencher on the 3′ and 5′ ends of the DNA, respectively. Pf-apPOL concentration is based on a calculated absorptivity of ε280 = 56750 M^−1 cm^−1. Reactions were carried out at 25 °C, using Corning 3575 […] (well-volume, 20 µL). Assays testing for compound inhibition composed of reaction buffer (pH 7.9 in 50 mM potassium acetate, 20 mM Tris-acetate and 10 mM magnesium acetate), Pf-apPOL (20 nM), DNA substrate (20 nM), dNTPs (6 µM), and compound (10 µM in DMSO). The DNA and nucleotide substrates (dNTPs) were at concentrations of 20 nM and 6 µM, respectively, in the assay. Pf-apPOL was incubated in the reaction buffer with dNTPs and the compound of interest (10 µM, in the assay) at 25 °C for 10 min. The DNA substrate was then added and the reaction was allowed to proceed for 90 min at 25 °C.
Each assay plate contained 16 negative controls (no Pf-apPOL, DMSO present) and 16 positive controls (Pf-apPOL present, no DMSO). The fluorescence of each well was determined using a BioTek Synergy Neo fluorescence plate reader using excitation and emission wavelengths of 555 and 570 nm, respectively.
In the above, Min is the average of fluorescence emission of the negative controls (substrate only), Max the average fluorescence emission from the positive controls (enzyme + substrate), and Test the emission from the assays in the presence of compounds (enzyme + compound + substrates). […] […] The IC50 of each compound was determined using Equation (2): (2) IC50= Vmax/(1+ (I/IC50)^n)
In the above, n measures cooperativity, with n > 1 indicating synergistic binding of more than a single molecule of the compound.
To identify apPOL inhibitors we utilised our previously developed high-throughput DNA polymerase assay. The HT assay is based on a molecular beacon DNA template that forms a stem-loop with a Cy3 dye and the Black Hole Quencher on the 3′ and 5′ ends of the DNA, respectively. DNA polymerase activity extends an annealed primer through the stem region, displacing the fluorophore from the quencher, thereby increasing its fluorescence (Figure 1(A)). The assay accurately recapitulates the kinetic behaviour of apPOL, as measured through more conventional low-throughput gel-based assays. The Z′ factor for the assay described here was 0.9 across all plates (data not shown).
Figure 1. High-throughput screening. (A) The fluorescent-based DNA polymerase assay used to screen the compound libraries. The DNA template strand is a hairpin loop with a primer annealed to the loop. The 3’ end of the primer is 11 bases away from the 6 bp duplex. Strand displacement activity of the DNA polymerase separates the Cy3 dye from the Black hole quencher leading to an increase in fluorescent signal. (B) The high-throughput assay workflow. The DNA polymerase is incubated with […] compound for 10 min prior to addition of the hairpin substrate. The reaction is quenched at 3 different time points and the fluorescent signal is measured and % inhibition is determined using the provided equation.

[1] = primary screen value of the 186 hits; unit not given; 90 min, 10 µM

P. falciparum apicoplast DNA polymerase (Pf-apPOL), sequence (Q8ILY1 entry or part of it): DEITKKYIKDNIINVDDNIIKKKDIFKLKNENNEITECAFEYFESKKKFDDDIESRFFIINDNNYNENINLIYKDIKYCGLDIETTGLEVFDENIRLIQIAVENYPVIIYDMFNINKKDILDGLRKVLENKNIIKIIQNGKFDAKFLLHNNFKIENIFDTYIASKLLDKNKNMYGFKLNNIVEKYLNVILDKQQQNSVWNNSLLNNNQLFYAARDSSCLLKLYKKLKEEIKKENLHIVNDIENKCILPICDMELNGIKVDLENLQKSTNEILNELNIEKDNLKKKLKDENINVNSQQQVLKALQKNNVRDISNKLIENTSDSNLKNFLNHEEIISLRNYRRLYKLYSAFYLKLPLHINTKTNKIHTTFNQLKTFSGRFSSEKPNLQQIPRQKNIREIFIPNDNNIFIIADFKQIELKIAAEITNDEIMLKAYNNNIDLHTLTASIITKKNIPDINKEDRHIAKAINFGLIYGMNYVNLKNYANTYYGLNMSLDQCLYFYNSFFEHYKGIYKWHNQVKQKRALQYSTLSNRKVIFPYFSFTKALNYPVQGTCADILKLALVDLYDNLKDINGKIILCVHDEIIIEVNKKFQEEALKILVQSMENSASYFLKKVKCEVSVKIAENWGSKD

SMILES: CCc1ccccc1NC(=O)c1ccc(-c2ncccc2NC(C)=O)cc1 [KU0203112]
- % inhibition Apo pol 10' (DRC-1; concentration 2.5; 10'): 16.2237%
- % inhibition Apol 90' (DRC-1; concentration 2.5; 90'): 2.255%
- % inhibition apPOL 180' (DRC-1; concentration 2.5; 180'): -4.969%
- % inhibition Apo pol 10' (DRC-1; concentration 5; 10'): 20.5956%
- % inhibition Apol 90' (DRC-1; concentration 5; 90'): 6.528%
- % inhibition apPOL 180' (DRC-1; concentration 5; 180'): -1.7806%
- % inhibition Apo pol 10' (DRC-1; concentration 10; 10'): 40.7013%
- % inhibition Apol 90' (DRC-1; concentration 10; 90'): 22.2992%
- % inhibition apPOL 180' (DRC-1; concentration 10; 180'): 9.63%
- % inhibition Apo pol 10' (DRC-1; concentration 20; 10'): 66.0159%
- % inhibition Apol 90' (DRC-1; concentration 20; 90'): 44.8534%
- % inhibition apPOL 180' (DRC-1; concentration 20; 180'): 25.9288%
- % inhibition Apo pol 10' (DRC-1; concentration 40; 10'): 83.2179%
- % inhibition Apol 90' (DRC-1; concentration 40; 90'): 72.954%
- % inhibition apPOL 180' (DRC-1; concentration 40; 180'): 58.4495%
- % inhibition Apo pol 10' (DRC-1; concentration 80 (unit not given); 10'): 89.6121%
- % inhibition Apol 90' (DRC-1; concentration 80; 90'): 90.3611%
- % inhibition apPOL 180' (DRC-1; concentration 80; 180'): 89.009%
- % inhibition ApPOL 90' (DRC-2; 90'; concentration 40): 70%
- % inhibition apPOL 180' (DRC-2; 180'; concentration 40): 70%
- % inhibition Apo pol 5' (DRC-2; concentration 2.5; 5'): 0.547%
- % inhibition Apol 40' (DRC-2; concentration 2.5; 40'): 0.556%
- % inhibition ApPOL 90' (DRC-2; concentration 2.5; 90'): -1.65%
- % inhibition apPOL 180' (DRC-2; concentration 2.5; 180'): -5.44%
- % inhibition Apo pol 5' (DRC-2; concentration 5; 5'): 5.51%
- % inhibition Apol 40' (DRC-2; concentration 5; 40'): 7%
- % inhibition ApPOL 90' (DRC-2; concentration 5; 90'): 5.44%
- % inhibition apPOL 180' (DRC-2; concentration 5; 180'): -1.68%
- % inhibition Apo pol 5' (DRC-2; concentration 10; 5'): 27%
- % inhibition Apol 40' (DRC-2; concentration 10; 40'): 28%
- % inhibition ApPOL 90' (DRC-2; concentration 10; 90'): 25%
- % inhibition apPOL 180' (DRC-2; concentration 10; 180'): 14%
- % inhibition Apo pol 5' (DRC-2; concentration 20; 5'): 43%
- % inhibition Apol 40' (DRC-2; concentration 20; 40'): 54%
- % inhibition ApPOL 90' (DRC-2; concentration 20; 90'): 52%
- % inhibition apPOL 180' (DRC-2; concentration 20; 180'): 41%
- % inhibition Apo pol 5' (DRC-2; concentration 40; 5'): 50%
- % inhibition Apol 40' (DRC-2; concentration 40; 40'): 68%
- % inhibition ApPOL 90' (DRC-2; concentration 40; 90'): 70%
- % inhibition apPOL 180' (DRC-2; concentration 40; 180'): 70%
- % inhibition Apo pol 5' (DRC-2; concentration 80; 5'): 47%
- % inhibition Apol 40' (DRC-2; concentration 80; 40'): 69%
- % inhibition ApPOL 90' (DRC-2; concentration 80; 90'): 74%
- % inhibition apPOL 180' (DRC-2; concentration 80; 180'): 77%
- DNA Pol [1]: 26
- DNA Pol (primary screen value; head prints only 'DNA Pol'; 90 min, 10 µM): 26

SMILES: O=C(Cn1ccc2c(=O)[nH]ccc21)Nc1ccc(Cl)cc1 [Molecule 36, O=C(Cn1ccc2c1cc[nH]c2=O)Nc1ccc(cc1)Cl]
- % inhibition Apo pol 10' (DRC-1; 10'; concentration 2.5): 6.801%
- % inhibition Apo pol 10' (DRC-1; 10'; concentration 5): 22.3776%
- % inhibition Apo pol 10' (DRC-1; 10'; concentration 10): 24.792%
- % inhibition Apo pol 10' (DRC-1; 10'; concentration 20): 79.2996%
- % inhibition Apo pol 10' (DRC-1; 10'; concentration 40): 82.0585%
- % inhibition Apo pol 10' (DRC-1; 10'; concentration 80): 79.648%
- % inhibition Apol 90' (DRC-1; 90'; concentration 2.5): -0.4643%
- % inhibition Apol 90' (DRC-1; 90'; concentration 5): 11.3565%
- % inhibition Apol 90' (DRC-1; 90'; concentration 10): 14.0157%
- % inhibition Apol 90' (DRC-1; 90'; concentration 20): 73.6159%
- % inhibition Apol 90' (DRC-1; 90'; concentration 40): 79.7069%
- % inhibition Apol 90' (DRC-1; 90'; concentration 80): 82.9478%
- % inhibition apPOL 180' (DRC-1; 180'; concentration 2.5): -6.005%
- % inhibition apPOL 180' (DRC-1; 180'; concentration 5): 0.9781%
- % inhibition apPOL 180' (DRC-1; 180'; concentration 10): 3.9308%
- % inhibition apPOL 180' (DRC-1; 180'; concentration 20): 61.1275%
- % inhibition apPOL 180' (DRC-1; 180'; concentration 40): 73.0225%
- % inhibition apPOL 180' (DRC-1; 180'; concentration 80): 82.2877%
- % inhibition Apo pol 5' (DRC-2, 5', concentration 10 (unit not given)): 44%
- % inhibition Apo pol 5' (DRC-2, 5', concentration 20 (unit not given)): 44%
- % inhibition Apol 40' (DRC-2, 40', concentration 10 (unit not given)): 57%
- % inhibition Apol 40' (DRC-2, 40', concentration 20 (unit not given)): 63%
- % inhibition Apol 40' (DRC-2, 40', concentration 40 (unit not given)): 63%
- % inhibition ApPOL 90' (DRC-2, 90', concentration 5 (unit not given)): 20%
- % inhibition ApPOL 90' (DRC-2, 90', concentration 10 (unit not given)): 57%
- % inhibition ApPOL 90' (DRC-2, 90', concentration 40 (unit not given)): 67%
- % inhibition apPOL 180' (DRC-2, 180', concentration 20 (unit not given)): 63%
- % inhibition apPOL 180' (DRC-2, 180', concentration 80 (unit not given)): 67%
- % inhibition Apo pol 5' (DRC-2; 5'; concentration 2.5): 0%
- % inhibition Apo pol 5' (DRC-2; 5'; concentration 5): 20%
- % inhibition Apo pol 5' (DRC-2; 5'; concentration 5 (unit not given)): 20%
- % inhibition Apo pol 5' (DRC-2; 5'; concentration 10): 44%
- % inhibition Apo pol 5' (DRC-2; 5'; concentration 20): 44%
- % inhibition Apo pol 5' (DRC-2; 5'; concentration 40): 41%
- % inhibition Apo pol 5' (DRC-2; 5'; concentration 80): 30%
- % inhibition Apol 40' (DRC-2; 40'; concentration 2.5): -0.111%
- % inhibition Apol 40' (DRC-2; 40'; concentration 5): 24%
- % inhibition Apol 40' (DRC-2; 40'; concentration 10): 57%
- % inhibition Apol 40' (DRC-2; 40'; concentration 20): 63%
- % inhibition Apol 40' (DRC-2; 40'; concentration 40): 63%
- % inhibition Apol 40' (DRC-2; 40'; concentration 80): 56%
- % inhibition ApPOL 90' (DRC-2; 90'; concentration 2.5): -2%
- % inhibition ApPOL 90' (DRC-2; 90'; concentration 5): 20%
- % inhibition ApPOL 90' (DRC-2; 90'; concentration 10): 57%
- % inhibition ApPOL 90' (DRC-2; 90'; concentration 20): 66%
- % inhibition ApPOL 90' (DRC-2; 90'; concentration 40): 67%
- % inhibition ApPOL 90' (DRC-2; 90'; concentration 80): 61%
- % inhibition apPOL 180' (DRC-2; 180'; concentration 2.5): -7%
- % inhibition apPOL 180' (DRC-2; 180'; concentration 5): 11%
- % inhibition apPOL 180' (DRC-2; 180'; concentration 10): 48%
- % inhibition apPOL 180' (DRC-2; 180'; concentration 20): 63%
- % inhibition apPOL 180' (DRC-2; 180'; concentration 40): 69%
- % inhibition apPOL 180' (DRC-2; 180'; concentration 80): 67%
- DNA Pol [1]: 46
- DNA Pol (primary screen value, head "DNA Pol", unit not given; 90 min, 10 µM): 46
